In patent publication US20240277637A1, “CAPSAICIN DERIVATIVES IN THE TREATMENT OF IDIOPATHIC PULMONARY FIBROSIS” (aXichem AB, priority 2021, published 2024):
“Also recorded” adds a separate entry of the source.

Tested on: human bronchial epithelial cells
Assay: Clonogenic cell survival assay, bronchial epithelial cells with PDGF-AB (Example 3)
Assay type: cell-based
Settings: 10 ng/ml PDGF-AB, 14 days; for effect on clonogenic survival / PDGF inhibition (words): 0-10 μM
Description: Primary isolated human bronchial epithelial cells (NHBE) were used in this assay sourced from the American Tissue Culture Collection (Normal, Human (ATCC® BEAS-2B™)) and were cultured up to passage 6. […].
A clonogenic cell survival assay determines the ability of a cell to proliferate indefinitely. Cells were plated with increasing numbers (102 to 5×10^4) in 25 cm^2 flasks. SU9518, SU9518, a known inhibitor PDGF that has shown the ability to reduce radiation-induced fibroblast and endothelial cell activation, and phenylcapsaicin were used as positive controls. The cells were incubated with 0-10 μM (3% DMSO aqueous) of phenylcapsaicin, SU9518, and compounds 1 and 3-7 separately in the presence of 10 ng/ml PDGF-AB (Sigma Aldrich). The flasks were returned to the incubator for 14 days, after which they were stained with crystal violet (Sigma Aldrich). The colonies were counted and the surviving percentage was determined for clonogenic survival after correcting for plating efficiency.

SMILES | effect on clonogenic survival / PDGF inhibition (words) | effect on clonogenic survival / PDGF inhibition (words) (listed as compound 3) | Clonogenic Survival Assay (percent) (0.10 μM) [%] | Clonogenic Survival Assay (percent) (0.50 μM) [%] | Clonogenic Survival Assay (percent) (1.00 μM) [%] | Clonogenic Survival Assay (percent) (2.00 μM) [%] | Clonogenic Survival Assay (percent) (5.00 μM) [%] | Clonogenic Survival Assay (percent) (10.00 μM) [%] | Clonogenic Survival Assay (percent) (10.00 μM, listed as compound 3) [%] | effect on clonogenic survival / PDGF inhibition (words) (listed as compound 4) | Clonogenic Survival Assay (percent) (10.00 μM, listed as compound 4) [%] | effect on clonogenic survival / PDGF inhibition (words) (listed as compound 5) | Clonogenic Survival Assay (percent) (10.00 μM, listed as compound 5) [%] | effect on clonogenic survival / PDGF inhibition (words) (listed as compound 6) | effect on clonogenic survival / PDGF inhibition (words) (listed as compound 7)
COc1cc(CNC(=O)CCCCC#CC2CCCCC2)ccc1O [Compound 3] | some modest activity | PDGF inhibition activity dropped significantly | 91 | 83 | 77 | 74 | 71 | 73 | 73 | – | – | – | – | – | –
COc1cc(CNC(=O)CCCCC#CC(C)(C)C)ccc1O [Compound 4] | did not show any PDGF inhibition | – | 97 | 95 | 97 | 96 | 91 | 91 | – | completely eliminated the PDGF inhibiting activity | 91 | – | – | – | –
COc1cc(CNC(=O)CCCCC#Cc2ccccc2)ccc1OC(C)=O [Compound 5, 2-Methoxy-4-[(6-phenyl-5-hexynylcarbonylamino)methyl]phenyl acetate] | greater PDGF inhibition than both the parent PheCap (2) and the positive control SU9518; also recorded: significant improvement in PDGF inhibiting activity | – | 78 | 60 | 45 | 32 | 30 | 20 | – | – | – | significant improvement in PDGF inhibiting activity | 20 | – | –
COc1cc(CNC(=O)CCCCC#CC2CCCCC2)ccc1OC(C)=O [Compound 6] | some modest activity | – | 89 | 82 | 76 | 64 | 69 | 61 | – | – | – | – | – | gave better results than compound 3 | –
COc1cc(CNC(=O)CCCCC#CC(C)(C)C)ccc1OC(C)=O [Compound 7] | did not show any PDGF inhibition | – | 99 | 96 | 96 | 91 | 94 | 93 | – | – | – | – | – | – | could not mediate the negative effects of the tert-butyl group
